In US11731943B2, “Therapeutic compounds, compositions and methods of use thereof” (priority 2016, dated 2023):
Like-named read-outs stand apart in the source and are kept apart here.

What was measured:
[1] = biological target: isolated recombinant JAK1 kinase domain (Homo sapiens (Human), UniProt P23458); experiment: JAK1 enzyme assay (Caliper LabChip, Ki); type: biochemical
In short: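 Recombinant human JAK1 kinase domain phosphorylating an N-terminally 5-carboxyfluorescein-labelled JAK3-derived peptide, 30 min at 22 °C, stopped with EDTA (50 mM final). Phosphorylated fraction of total peptide read by Caliper LabChip mobility shift; Ki from Morrison tight-binding fit corrected for ATP competition (Ki=Ki,app/(1+[ATP]/Km,app)).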

[2] = biological target: isolated recombinant JAK2 kinase domain (Homo sapiens (Human), UniProt O60674); experiment: JAK2 enzyme assay (Caliper LabChip, Ki); type: biochemical
In short: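 Recombinant human JAK1 or JAK2 kinase domain phosphorylating a 5-carboxyfluorescein-labelled JAK3-derived peptide; 30 min at 22 °C, stopped with EDTA (50 mM final). Phosphorylated product measured as a fraction of total peptide by Caliper LabChip mobility shift.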

[3] = tested on: JAK1-dependent STAT6 phosphorylation downstream of IL-13 stimulation in BEAS-2B human bronchial epithelial cells; experiment: JAK1 pathway assay in BEAS-2B cells (IL-13-pSTAT6, MSD); type: cell-based; settings: BEAS-2B cells, IL-13 stimulation, read-out: IL-13 p-STAT6 BEAS-2B IC50
Experimental: JAK1 Pathway Assay in Cell Lines was carried out as follows:
Inhibitor potency (EC50) was determined in cell-based assays designed to measure JAK1 dependent STAT phosphorylation.
In one assay approach, TF-1 human erythroleukemia cells obtained from the American Type Culture Collection (ATCC; Manassas, Va.) were used to measure JAK1-dependent STAT6 phosphorylation downstream of IL-13 stimulation. Prior to use in the assays, TF-1 cells were starved of GM-CSF overnight in OptiMEM medium (Life Technologies, Grand Island, N.Y.) supplemented with 0.5% charcoal/dextran stripped fetal bovine serum (FBS), 0.1 mM non-essential amino acids (NEAA), and 1 mM sodium pyruvate. The assays were run in 384-well plates in serum-free OptiMEM medium using 300,000 cells per well. In a second assay approach, BEAS-2B human bronchial epithelial cells obtained from ATCC were plated at 100,000 cells per well of a 96-well plate one day prior to the experiment. The BEAS-2B assay was run in complete growth medium (bronchial epithelial basal medium plus bulletkit; Lonza; Basel, Switzerland).
Test compounds were serially diluted 1:2 in DMSO and then diluted 1:50 in medium just before use. Diluted compounds were added to the cells, for a final DMSO concentration of 0.2%, and incubated for 30 min (for the TF-1 assay) or 1 hr (for the BEAS-2B assay) at 37° C. Then, cells were stimulated with human recombinant cytokine at their respective EC90 concentrations, as previously determined for each individual lot. Cells were stimulated with IL-13 (R&D Systems, Minneapolis, Minn.) for 15 min at 37° C. The TF-1 cell reactions were stopped by the direct addition of 10× lysis buffer (Cell Signaling Technologies, Danvers, Mass.), whereas the BEAS-2B cell incubations were halted by the removal of medium and addition of 1× lysis buffer. The resultant samples were frozen in the plates at −80° C. Compound mediated inhibition of STATE phosphorylation was measured in the cell lysates using MesoScale Discovery (MSD) technology (Gaithersburg, Md.).

isolated recombinant JAK1 kinase domain, sequence (P23458 875-1153): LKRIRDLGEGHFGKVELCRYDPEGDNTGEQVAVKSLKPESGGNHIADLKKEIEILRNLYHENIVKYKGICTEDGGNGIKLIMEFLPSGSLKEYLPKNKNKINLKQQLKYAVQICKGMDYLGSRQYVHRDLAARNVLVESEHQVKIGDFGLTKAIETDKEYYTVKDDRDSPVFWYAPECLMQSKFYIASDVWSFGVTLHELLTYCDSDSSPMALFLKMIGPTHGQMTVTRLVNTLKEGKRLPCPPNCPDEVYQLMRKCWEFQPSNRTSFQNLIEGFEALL
isolated recombinant JAK2 kinase domain, sequence (O60674 849-1124): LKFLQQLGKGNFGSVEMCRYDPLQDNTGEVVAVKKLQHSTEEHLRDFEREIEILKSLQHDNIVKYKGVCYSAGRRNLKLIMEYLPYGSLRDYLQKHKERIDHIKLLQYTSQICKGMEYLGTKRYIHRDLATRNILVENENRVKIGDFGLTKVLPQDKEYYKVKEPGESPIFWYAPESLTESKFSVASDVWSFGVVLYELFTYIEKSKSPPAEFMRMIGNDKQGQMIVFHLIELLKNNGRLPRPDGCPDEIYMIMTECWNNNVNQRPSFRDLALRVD

With `N#CC[C@]1(n2cc(C(N)=O)c(NC(=O)C3CC3)n2)CC[C@@H](NCC(F)(F)F)CC1` (single isomer, unassigned) [Example 1] the Ki [1] was > 562 nM, the Ki [2] was 252 nM and the IC50 ([3]; Homo sapiens, BEAS-2B) was > 1000 nM.
`N#CC[C@]1(n2cc(C(N)=O)c(NC(=O)C3CC3)n2)CC[C@H](NCC(F)(F)F)CC1` (single isomer, unassigned) [Example 2] was tested, and the Ki [1] was 1.2 nM, the Ki [2] was 6.1 nM and the IC50 ([3]; Homo sapiens, BEAS-2B) was 373 nM.
Work on `N#CC[C@]1(n2cc(C(N)=O)c(NC(=O)C3CC3)n2)CC[C@H](N2CC(C(F)(F)F)C2)CC1` (single isomer, unassigned) [Example 8] yielded a Ki ([1]; read-out: JAK1 Ki) of 1.7 nM, a Ki [2] of 11 nM and an IC50 ([3]; Homo sapiens, BEAS-2B) of 194 nM.
In the case of `CCOC1(C(F)(F)F)CN([C@H]2CC[C@@](CC#N)(n3cc(C(N)=O)c(NC(=O)C4CC4)n3)CC2)C1` (single isomer, unassigned) [Example 9], the Ki ([1]; read-out: JAK1 Ki) is reported as 2.2 nM, the Ki [2] is reported as 24.3 nM and the IC50 ([3]; Homo sapiens, BEAS-2B) is reported as 436 nM.
For `CCOC1(C(F)(F)F)CN([C@H]2CC[C@](CC#N)(n3cc(C(N)=O)c(NC(=O)C4CC4)n3)CC2)C1` (single isomer, unassigned) [Example 10], the Ki ([1]; read-out: JAK1 Ki) was > 562 nM, the Ki [2] was > 319 nM and the IC50 ([3]; Homo sapiens, BEAS-2B) was > 1000 nM.
With `N#CC[C@]1(n2cc(C(N)=O)c(NC(=O)C3CC3)n2)CCN(Cc2ccc(-c3ccccc3)cc2)C[C@@H]1F` (single isomer, unassigned) [Example 12] the Ki ([1]; read-out: JAK1 Ki) was 1.3 nM, the Ki [2] was 6.8 nM and the IC50 ([3]; Homo sapiens, BEAS-2B) was 103 nM.
Molecule `N#CC[C@@]1(n2cc(C(N)=O)c(NC(=O)C3CC3)n2)CCN(Cc2ccc(-c3ccccc3)cc2)C[C@@H]1F` (single isomer, unassigned) [Example 13] has a Ki ([1]; read-out: JAK1 Ki) of 0.6 nM, a Ki [2] of 2.2 nM and an IC50 ([3]; Homo sapiens, BEAS-2B) of 37 nM.
`N#CC[C@]1(n2cc(C(N)=O)c(NC(=O)C3CC3)n2)CCN(Cc2ccc(-c3ccccc3)cc2)C[C@H]1F` (single isomer, unassigned) [Example 14] was tested, and the Ki ([1]; read-out: JAK1 Ki) was 0.2 nM, the Ki [2] was 0.4 nM and the IC50 ([3]; Homo sapiens, BEAS-2B) was 16 nM.
Molecule `N#CC[C@@]1(n2cc(C(N)=O)c(NC(=O)C3CC3)n2)CCN(Cc2ccc(-c3ccccc3)cc2)C[C@H]1F` (single isomer, unassigned) [Example 15] has a Ki ([1]; read-out: JAK1 Ki) of 4.2 nM, a Ki [2] of 30.7 nM and an IC50 ([3]; Homo sapiens, BEAS-2B) of 282 nM.
Molecule `N#CCC1(n2cc(C(N)=O)c(NC(=O)C3CC3)n2)CCC(Oc2ccc(-c3ccccc3)cc2)CC1` (single isomer, unassigned) [Example 210, 1-(4-([1,1′-Biphenyl]-4-yloxy)-1-(cyanomethyl)cyclohexyl)-3-(cyclopropanecarboxamido)-1H-pyrazole-4-carboxamide] has a Ki ([1]; read-out: JAK1 Ki) of 2.1 nM, a Ki [2] of 5.1 nM and an IC50 [3] of 75 nM.
Molecule `N#CCC1(n2cc(C(N)=O)c(NC(=O)C3CC3)n2)CCC(Oc2ccc(-c3ccccc3)cc2)CC1` (single isomer, unassigned) [Example 211, 1-(4-([1,1′-Biphenyl]-4-yloxy)-1-(cyanomethyl)cyclohexyl)-3-(cyclopropanecarboxamido)-1H-pyrazole-4-carboxamide] has a Ki ([1]; read-out: JAK1 Ki) of 0.74 nM, a Ki [2] of 4.6 nM and an IC50 [3] of 26 nM.
`N#CCC1(n2cc(C(N)=O)c(NC(=O)C3CC3)n2)CCN(Cc2ccc(-c3ccccc3)cc2)CC1` [Example 6, 1-(1-([1,1′-Biphenyl]-4-ylmethyl)-4-(cyanomethyl)piperidin-4-yl)-3-(cyclopropanecarboxamido)-1H-pyrazole-4-carboxamide] gave a Ki ([1]; read-out: JAK1 Ki) of 0.8 nM, a Ki [2] of 3.6 nM and an IC50 ([3]; Homo sapiens, BEAS-2B) of 31 nM.
Molecule `N#CCC1(n2cc(C(N)=O)c(NC(=O)C3CC3)n2)CCN(Cc2ccc(-c3ccccc3)c(O)c2)CC1` [Example 11, 1-(4-(Cyanomethyl)-1-((2-hydroxy-[1,1′-biphenyl]-4-yl)methyl)piperidin-4-yl)-3-(cyclopropanecarboxamido)-1H-pyrazole-4-carboxamide] has a Ki ([1]; read-out: JAK1 Ki) of 0.4 nM, a Ki [2] of 1 nM and an IC50 ([3]; Homo sapiens, BEAS-2B) of 383 nM.
`N#CCC1(n2cc(C(N)=O)c(NC(=O)C3CC3)n2)CCN(Cc2ccc(-c3csc(Cl)c3)nc2)CC1` [Example 16, 1-(1-((6-(5-Chlorothiophen-3-yl)pyridin-3-yl)methyl)-4-(cyanomethyl)piperidin-4-yl)-3-(cyclopropanecarboxamido)-1H-pyrazole-4-carboxamide] was tested, and the Ki ([1]; read-out: JAK1 Ki) was 0.5 nM, the Ki [2] was 2.4 nM and the IC50 ([3]; Homo sapiens, BEAS-2B) was 85 nM.
For `N#CCC1(n2cc(C(N)=O)c(NC(=O)C3CC3)n2)CCN(C(=O)OCC2CC2)CC1` [Example 17, Cyclopropylmethyl 4-(4-carbamoyl-3-(cyclopropanecarboxamido)-1H-pyrazol-1-yl)4-(cyanomethyl) piperidine-1-carboxylate], the Ki ([1]; read-out: JAK1 Ki) was 4 nM, the Ki [2] was 69.4 nM and the IC50 ([3]; Homo sapiens, BEAS-2B) was 948 nM.
For `N#CCC1(n2cc(C(N)=O)c(NC(=O)C3CC3)n2)CCN(C(=O)NC2CC(F)(F)C2)CC1` [Example 21, 4-(4-Carbamoyl-3-(cyclopropanecarboxamido)-1H-pyrazol-1-yl)-4-(cyanomethyl)-N-(3,3-difluorocyclobutyl) piperidine-1-carboxamide], the Ki ([1]; read-out: JAK1 Ki) was 2.3 nM, the Ki [2] was 48.4 nM and the IC50 ([3]; Homo sapiens, BEAS-2B) was > 1000 nM.
`N#CCC1(n2cc(C(N)=O)c(NC(=O)C3CC3)n2)CCN(CC(F)(F)F)CC1` [Example 23] was tested, and the Ki ([1]; read-out: JAK1 Ki) was 4.5 nM, the Ki [2] was 19.4 nM and the IC50 ([3]; Homo sapiens, BEAS-2B) was 250 nM.
For `CS(=O)(=O)Nc1cccc(CN2CCC(CC#N)(n3cc(C(N)=O)c(NC(=O)C4CC4)n3)CC2)c1` [Example 45], the Ki ([1]; read-out: JAK1 Ki) was 1.9 nM, the Ki [2] was 8.5 nM and the IC50 ([3]; Homo sapiens, BEAS-2B) was > 1000 nM.
Work on `N#CCC1(n2cc(C(N)=O)c(NC(=O)C3CC3)n2)CCN(Cc2ccc(Br)cc2)CC1` [Example 52] yielded a Ki ([1]; read-out: JAK1 Ki) of 2.3 nM, a Ki [2] of 20.9 nM and an IC50 ([3]; Homo sapiens, BEAS-2B) of 102 nM.
With `N#CCC1(n2cc(C(N)=O)c(NC(=O)C3CC3)n2)CCN(Cc2ccc(I)cc2)CC1` [Example 55] the Ki ([1]; read-out: JAK1 Ki) was 3.2 nM, the Ki [2] was 31.4 nM and the IC50 ([3]; Homo sapiens, BEAS-2B) was 98 nM.
`N#CCC1(n2cc(C(N)=O)c(NC(=O)C3CC3)n2)CCN(Cc2cccc(F)c2)CC1` [Example 56] gave a Ki ([1]; read-out: JAK1 Ki) of 2.4 nM, a Ki [2] of 24.3 nM and an IC50 ([3]; Homo sapiens, BEAS-2B) of 363 nM.
Work on `N#CCC1(n2cc(C(N)=O)c(NC(=O)C3CC3)n2)CCN(Cc2ccc(F)cc2)CC1` [Example 57] yielded a Ki ([1]; read-out: JAK1 Ki) of 3.9 nM, a Ki [2] of 49 nM and an IC50 ([3]; Homo sapiens, BEAS-2B) of 128 nM.
For `N#CCC1(n2cc(C(N)=O)c(NC(=O)C3CC3)n2)CCN(Cc2ccccc2Cl)CC1` [Example 58], the Ki ([1]; read-out: JAK1 Ki) was 4.4 nM, the Ki [2] was 42.6 nM and the IC50 ([3]; Homo sapiens, BEAS-2B) was 287 nM.
`N#CCC1(n2cc(C(N)=O)c(NC(=O)C3CC3)n2)CCN(Cc2ccc(Cl)cc2)CC1` [Example 60] showed a Ki ([1]; read-out: JAK1 Ki) of 3.9 nM, a Ki [2] of 23.4 nM and an IC50 ([3]; Homo sapiens, BEAS-2B) of 94 nM.
For `N#CCC1(n2cc(C(N)=O)c(NC(=O)C3CC3)n2)CCN(Cc2ccccc2C#N)CC1` [Example 64], the Ki ([1]; read-out: JAK1 Ki) was 7.3 nM, the Ki [2] was 83.5 nM and the IC50 ([3]; Homo sapiens, BEAS-2B) was > 1000 nM.
Molecule `N#CCC1(n2cc(C(N)=O)c(NC(=O)C3CC3)n2)CCN(Cc2ccc(C#N)cc2)CC1` [Example 66] has a Ki ([1]; read-out: JAK1 Ki) of 4 nM, a Ki [2] of 50.2 nM and an IC50 ([3]; Homo sapiens, BEAS-2B) of 910 nM.
In the case of `CCS(=O)(=O)Nc1cccc(CN2CCC(CC#N)(n3cc(C(N)=O)c(NC(=O)C4CC4)n3)CC2)c1` [Example 75], the Ki ([1]; read-out: JAK1 Ki) is reported as 2.7 nM, the Ki [2] is reported as 14 nM and the IC50 ([3]; Homo sapiens, BEAS-2B) is reported as > 1000 nM.
`CC(=O)Nc1cccc(CN2CCC(CC#N)(n3cc(C(N)=O)c(NC(=O)C4CC4)n3)CC2)c1` [Example 76] was tested, and the Ki ([1]; read-out: JAK1 Ki) was 3.9 nM, the Ki [2] was 36.9 nM and the IC50 ([3]; Homo sapiens, BEAS-2B) was > 1000 nM.
With `N#CCC1(n2cc(C(N)=O)c(NC(=O)C3CC3)n2)CCN(Cc2ccc(Br)c(F)c2)CC1` [Example 77] the Ki ([1]; read-out: JAK1 Ki) was 2.6 nM, the Ki [2] was 44.7 nM and the IC50 ([3]; Homo sapiens, BEAS-2B) was 227 nM.
For `CS(=O)(=O)Nc1cccc(CN2CCC(CC#N)(n3cc(C(N)=O)c(NC(=O)C4CC4)n3)CC2)c1F` [Example 78], the Ki ([1]; read-out: JAK1 Ki) was 2.9 nM, the Ki [2] was 4.9 nM and the IC50 ([3]; Homo sapiens, BEAS-2B) was > 1000 nM.
For `N#CCC1(n2cc(C(N)=O)c(NC(=O)C3CC3)n2)CCN(CCc2ccccc2)CC1` [Example 183, 1-[4-(cyanomethyl)-1-(2-phenylethyl)-4-piperidyl]-3-(cyclopropanecarbonylamino) pyrazole-4-carboxamide], the Ki ([1]; read-out: JAK1 Ki) was 88.3 nM and the Ki [2] was > 319 nM.
Work on `N#CCC1(n2cc(C(N)=O)c(NC(=O)C3CC3)n2)CCN(Cc2ccc(-c3ccccn3)cc2)CC1` [Example 185, 1-[4-(cyanomethyl)-1-[[4-(2-pyridyl)phenyl]methyl]-4-piperidyl]-3-(cyclopropanecarbonylamino) pyrazole-4-carboxamide] yielded a Ki ([1]; read-out: JAK1 Ki) of 2.3 nM and an IC50 ([3]; Homo sapiens, BEAS-2B) of 209 nM.
